The text below walks through data of US5175158A, “Condensed diazepinones, processes for preparing them and pharmaceutical compositions containing these compounds” (Dr. Karl Thomae, GmbH, priority 1987, dated 1992).

The target in experiment [1] is muscarinic receptors (cerebral cortex). Nature of the experiment: Receptor binding test in vitro, cerebral cortex (3H-N-methylscopolamine displacement). Set-up: species or system rat (male Sprague-Dawley). The note with it: 0.3 nanomolar 3H-NMS, 30° C., 45 minutes, pH 7.4. The protocol:
(§1) The organs were donated by male Sprague-Dawley rats weighing 180-220 g. After the heart and submandibular gland and cerebral cortex had been removed, all other steps were carried out in ice cold Hepes HCl buffer (pH 7.4; 100 millimolar NaCl, 10 millimolar MgCl2). The whole heart was cut up with scissors. All the organs were then homogenised in a Potter apparatus.
(§2) For the binding test the homogenised organs were diluted as follows:
(§3) The homogenised organs were incubated at a certain concentration of the radioaligned and at a series of concentrations of the non-radioactive test substances in an Eppendorf centrifuge tube at 30° C. Incubation lasted 45 minutes. The radioligand used was 0.3 nanomolar ^3 H-N-methylscopolamine (^3 H-NMS). Incubation was ended by the addition of ice cold buffer followed by vacuum filtration. The filters were rinsed with cold buffer and their radioactivity was determined. It represents the sum of specific and non-specific binding of ^3 H-NMS. The proportion of non-specific binding was defined as the radioactivity which was bound in the presence of 1 micromolar quinuclidinylbenzylate. Each measurement was taken four times. The IC50 values of the non-labelled test substances were determined graphically. They represent that concentration of test substance at which the specific binding of ^3 H-NMS to the muscarinic receptors in the various organs was inhibited by 50%. […] PG,17

For experiment [2], the target named is T1, muscarinic receptors (heart) (Rattus norvegicus, UniProt P10980).
T1 construct: The whole heart was cut up with scissors; All the organs were then homogenised in a Potter apparatus; from tissue; host or cells: rat whole heart homogenate
T1 sequence (P10980 1-466): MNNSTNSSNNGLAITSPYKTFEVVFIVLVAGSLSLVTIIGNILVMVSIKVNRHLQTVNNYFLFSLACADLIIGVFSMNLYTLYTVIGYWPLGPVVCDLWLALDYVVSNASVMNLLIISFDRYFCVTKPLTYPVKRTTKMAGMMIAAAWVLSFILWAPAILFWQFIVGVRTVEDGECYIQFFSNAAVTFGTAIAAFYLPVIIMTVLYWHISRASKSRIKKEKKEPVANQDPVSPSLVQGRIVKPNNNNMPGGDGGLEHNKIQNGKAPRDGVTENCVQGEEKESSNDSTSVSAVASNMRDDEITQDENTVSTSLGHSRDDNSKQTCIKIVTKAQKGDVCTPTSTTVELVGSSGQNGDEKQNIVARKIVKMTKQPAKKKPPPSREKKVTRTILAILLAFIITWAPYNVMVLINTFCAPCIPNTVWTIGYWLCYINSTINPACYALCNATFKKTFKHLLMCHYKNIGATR
Nature of the experiment: Receptor binding test in vitro, heart (3H-N-methylscopolamine displacement). Set-up: species or system rat (male Sprague-Dawley). The note with it: whole heart; 0.3 nanomolar 3H-NMS; 30° C.; 45 minutes; pH 7.4. The protocol: as §1, §2, §3

Experiment [3] has as its target T2, muscarinic receptors (submandibular gland) (Rattus norvegicus, UniProt P08483).
T2 construct: All the organs were then homogenised in a Potter apparatus; from tissue; host or cells: rat submandibular gland homogenate
The experiment can be described thus: Receptor binding test in vitro, submandibular gland (3H-N-methylscopolamine displacement). Set-up: species or system rat (male Sprague-Dawley). The conditions noted are these: 0.3 nanomolar 3H-NMS, 30° C., 45 minutes, pH 7.4. The protocol: as §1, §2, §3

The subject of experiment [4] is vagal bradycardia (M2). The experiment can be described thus: M1/M2 selectivity in the rat: reduction of vagal bradycardia (M2). The note with it: iv, 5 minutes before vagus stimulation, 50% reduction of vagal bradycardia (M2), read-out: log ED50, Heart (converted). The experiment is classed as in vivo, rat (male THOM). The protocol: (§4) The dosage of the substances which reduced either the vagal bradycardia (M2) or the rise in blood pressure (M1) by 50% was determined graphically. For the results see Table II.

Experiment [5] relates to rise in blood pressure (M1). The experiment can be described thus: M1/M2 selectivity in the rat: reduction of rise in blood pressure caused by McN-A-343 (M1). In kind it is in vivo, rat (male THOM). The conditions noted are these: iv, 5 minutes before 0.3 mg/kg McN-A-343 i.v., 50% reduction of rise in blood pressure (M1), read-out: log ED50, Blood pressure (converted). The protocol: as §4

Experiment [6] deals with secretion of saliva. The experiment can be described thus: Salivation-inhibiting effect in the rat (pilocarpine). In kind it is in vivo, rat (male THOM). The conditions noted are these: iv; urethane-anaesthetised rat; i.v.; 2 mg/kg pilocarpine s.c.; 50% reduction of saliva volume; read-out: log ED50, Salivation (converted). The protocol: The secretion of saliva was initiated by subcutaneous administration of 2 mg/kg of pilocarpine. The saliva was absorbed with blotting paper and the surface area covered was measured every 5 minutes by planimetry. The dosage of the substance which reduced the volume of saliva by 50% was determined graphically. For the results see Table II.

Experiment [7] relates to acetylcholine activity on heart rate. The experiment can be described thus: Inhibition of acetylcholine activity on heart rate in the guinea pig. The conditions noted are these: Cavia porcellus, iv, 5 min; anaesthetised guinea pig; 5 minutes after test substance; 10 microgram/kg acetylcholine i.v. and i.a.; heart rate by ECG; read-out: log ED50, Heart (converted). In kind it is in vivo. The protocol:
(§5) 5 minutes after the administration of the test substance, 10 microgram/kg of acetylcholine were simultaneously injected intravenously and intra-arterially into anaesthetised guinea pigs. The heart rate was recorded directly by extracorporeal derivation of the ECG, the expiration resistance according to Konzett-Rossler and contraction of the exposed bladder. In order to determine the inhibition of the acetylcholine activity on the organs under investigation, dosage/activity curves were recorded and from them -log ED50 values were determined. […] The following compounds for example were investigated as described above: […]

Experiment [8] concerns acetylcholine activity on bronchi. Nature of the experiment: Inhibition of acetylcholine activity on the bronchi in the guinea pig. The experiment is classed as in vivo. The conditions noted are these: Cavia porcellus, iv, 5 min; anaesthetised guinea pig; 5 minutes after test substance; 10 microgram/kg acetylcholine i.v. and i.a.; expiration resistance (Konzett-Rossler); read-out: log ED50, Bronchi (converted). The protocol:
as §5

For experiment [9], the system named is acetylcholine activity on bladder. The experiment can be described thus: Inhibition of acetylcholine activity on the bladder in the guinea pig. In kind it is in vivo. The conditions noted are these: Cavia porcellus, iv, 5 min; anaesthetised guinea pig; 5 minutes after test substance; 10 microgram/kg acetylcholine i.v. and i.a.; contraction of exposed bladder; read-out: log ED50, Bladder (converted). The protocol: as §5

T2 sequence (P08483 whole entry): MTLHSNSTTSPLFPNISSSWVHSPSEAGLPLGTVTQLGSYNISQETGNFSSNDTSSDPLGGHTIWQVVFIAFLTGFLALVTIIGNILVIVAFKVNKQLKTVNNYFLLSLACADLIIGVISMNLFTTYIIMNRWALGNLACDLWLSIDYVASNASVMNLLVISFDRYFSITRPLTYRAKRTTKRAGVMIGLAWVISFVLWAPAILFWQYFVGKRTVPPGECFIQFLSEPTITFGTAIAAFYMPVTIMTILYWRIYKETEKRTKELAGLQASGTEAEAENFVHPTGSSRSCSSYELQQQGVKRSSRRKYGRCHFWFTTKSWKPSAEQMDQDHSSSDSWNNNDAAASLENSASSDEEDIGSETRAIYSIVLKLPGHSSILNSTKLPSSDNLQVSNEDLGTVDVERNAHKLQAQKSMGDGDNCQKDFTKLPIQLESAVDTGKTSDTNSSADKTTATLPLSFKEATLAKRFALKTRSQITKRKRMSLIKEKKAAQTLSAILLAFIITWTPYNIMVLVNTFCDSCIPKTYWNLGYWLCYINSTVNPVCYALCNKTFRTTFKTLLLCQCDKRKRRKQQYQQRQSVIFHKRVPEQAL

On to `O=C1Nc2cccnc2N(C(=O)CN2CCC(CCCCN3CCCCC3)CC2)c2ccccc21` [C], for which the IC50 was 50 nM in [1], 9 nM in experiment [2] and 200 nM in experiment [3]. Moreover, the ED50 is 0.115 µmol/kg in experiment [4]; 3.8 µmol/kg in experiment [5]; above 31.6 µmol/kg in [6]; 0.0871 µmol/kg in [7]; 0.661 µmol/kg in [8]; 2.63 µmol/kg in experiment [9].

On to `CCN(CC)CC1CCCCN1CC(=O)N1c2ccccc2C(=O)Nc2cccnc21` (stereo not drawn) [Substance E, 11-[[2-[(diethylamino)methyl]-1-piperidinyl]acetyl]-5,11-dihydro-6H-pyrido [2,3-b][1,4]benzodiazepin-6-one, reference compound], for which the ED50 in experiment [4] is 0.38 µmol/kg; in [6], 10 µmol/kg; in experiment [7], 1.45 µmol/kg; in [8], 2.63 µmol/kg; in experiment [9], 18.6 µmol/kg.

As to `O=C1Nc2cccnc2N(C(=O)CN2CCC(CCCN3CCCCC3)CC2)c2ccccc21` [B], the IC50 in [1] was 200 nM; in experiment [2], 20 nM; in [3], 550 nM. The ED50 in experiment [7] is 0.123 µmol/kg; in [8], 0.468 µmol/kg; in [9] it was 1.82 µmol/kg.

On to `CN1CCN(CC(=O)N2c3ccccc3C(=O)Nc3cccnc32)CC1` [F], for which the results for the ED50 in [7], in experiment [8] and in experiment [9] were 1.41 µmol/kg, 0.269 µmol/kg and 4.37 µmol/kg, respectively.

`CN1[C@@H]2CC[C@H]1CC(OC(=O)C(CO)c1ccccc1)C2` (stereo partly drawn) [G]: the ED50 was 0.0115 µmol/kg in experiment [4], 0.0457 µmol/kg in [5], 0.02 µmol/kg in experiment [7] and 0.0933 µmol/kg in experiment [9].

As to `Cc1scc2c1N(C(=O)CN1CCC(CCCN3CCCCC3)CC1)c1ccccc1NC2=O` [A], the IC50 was 60 nM in experiment [1], 5 nM in experiment [2] and 200 nM in experiment [3]. Further, the ED50 in [4] is 0.0724 µmol/kg; in [5] it was 1.51 µmol/kg; in [6], 6.31 µmol/kg; in experiment [7], 0.123 µmol/kg; in experiment [8], 0.282 µmol/kg; in [9], 2.75 µmol/kg.

For `CN1CCC(CCCC2CCN(CC(=O)N3c4ccccc4C(=O)Nc4cccnc43)CC2)CC1` [D], the IC50 was 500 nM in [1], 50 nM in [2] and 1500 nM in experiment [3]. Moreover, the ED50 in experiment [7] was 0.355 µmol/kg; in experiment [8] it was 0.851 µmol/kg; in [9] it was above 10 µmol/kg.

The term IC50 denotes the concentration needed to halve the response being measured. A lower IC50 goes with inhibition by little substance. In general, ED50 refers to the midpoint of the dose-response relation.
